Structures are written as SMILES. A value given as a limit tells only on which side of the number the result lay.

The test system of the test is myostatin gene expression in C2C12 cells. Description: Inhibition of myostatin expression in C2C12 cells (qPCR). It counts as cell-based. Particulars: Mus musculus, percentage myostatin gene expression in cells in contact with the compounds related to control cells, C2C12, 6 h. The procedure:
After several experiments in which the C2C12 cells differentiated into myotubes were incubated in the presence of IGF-1 or 20E for 2 h 30 or 6 h, two screening tests were developed. Thus, the phosphorylation of the S6 protein kinase and the expression of the myostatin gene were studied in order to determine their modulation by a growth hormone or an ecdysone and to characterize these modulations from a statistical point of view. The C2C12 myoblast cells (ATCC CRL-1772) are seeded into 24-well plates at a density of 30 000 cells per well and cultured in a DMEM medium containing glucose in a proportion of 4.5 g/l and supplemented with fetal calf serum (10%) and with antibiotics (penicillin and streptomycin). Forty-eight hours later, the myoblasts are induced to differentiate by partial serum depletion (2% instead of 10%) for 5 days. The cells are then placed in a medium which is glucose-depleted (DMEM containing 1 g/l of glucose) and serum-free in the presence of the test molecules or of the references (100 ng/ml IGF-1 or 10 μ[…]) for 6 h. At the end of the experiment, the messenger RNAs (mRNAs) are extracted using the conventional methodology based on phenol and chloroform. Briefly, the cells are lysed in a Trizol solution (Sigma T9424) containing a strong acid and phenol. The mRNAs are separated from the proteins by addition of chloroform and then centrifugation. They are then precipitated from isopropanol and then suspended at a concentration of 1 μg/μl in an […] ultrapure water. 1 μg of mRNA is then converted by reverse transcription into complementary DNA by the AMV enzyme in the presence of a primer and of a mixture of nucleotides according to the protocol given by the supplier (Applied Biosystems 4368814). […] The qPCRs are carried out on a 7900HT Fast real-Time PCR detection system (Applied Biosystems). The programming conditions are standard and consist of 1 cycle at 95° C. for 15 min, followed by 40 cycles at 95° C. for 15 s and at 60° C. for 1 min and the program ends with a melt curve step between 60° C. and 95° C. […] Fluorescent probes bind to the double-stranded DNA and are fluorescent only once bound to the DNA. A fluorescence threshold is established by the machine's program. When the amount of DNA allows the fluorescent probe to exceed this threshold, a PCR cycle number, called “Ct” for “Cycle Threshold”, is obtained. It is this value which forms the basis of the calculations to quantify the DNA relatively. A ratio R is established between the amount of starting DNA of a sample and that of a control, which has not undergone treatment (i.e. […] R=2^-ΔΔCt).
(In general: Real-time PCR tracks product formation cycle by cycle.)
`C/C(=N/OCCN(C)C)[C@H]1CC[C@@]2(O)C3=CC(=O)[C@@H]4C[C@@H](O)[C@@H](O)C[C@]4(C)C3CC[C@]12C` (stereo partly drawn) [Compound 35, (2S,3R,5R,10R,13R,14S,17S)-17-(N-(2-dimethylaminoethoxy)-C-methylcarbonimidoyl)-2,3,14-trihydroxy-10,13-dimethyl-2,3,4,5,9,11,12,15,16,17-decahydro-1H-cyclopenta[a]phenanthren-6-one] displayed a mrna remaining at 10 µM of 71 to 85%.

In turn, `CC([C@H]1CC[C@@]2(O)C3=CC(=O)[C@@H]4C[C@@H](O)[C@@H](O)C[C@]4(C)C3CC[C@]12C)N(CC(F)F)C(=O)C1CC1` (stereo partly drawn) [Compound 68, N-(2,2-difluoroethyl)-N-[1-[(2S,3R,5R,10R,13R,14S,17S)-2,3,14-trihydroxy-10,13-dimethyl-6-oxo-2,3,4,5,9,11,12,15,16,17-decahydro-1H-cyclopenta[a]phenanthren-17-yl]ethyl]cyclopropanecarboxamide] came in with a mrna remaining at 10 µM of less than 70%.

Turning to `CC([C@H]1CC[C@@]2(O)C3=CC(=O)[C@@H]4C[C@@H](O)[C@@H](O)C[C@]4(C)C3CC[C@]12C)N(CC(F)F)C(=O)OC(C)(C)C` (stereo partly drawn) [Compound 71, Tert-butyl N-(2,2-difluoroethyl)-N-[1-[(2S,3R,5R,10R,13R,14S,17S)-2,3,14-trihydroxy-10,13-dimethyl-6-oxo-2,3,4,5,9,11,12,15,16,17-decahydro-1H-cyclopenta[a]phenanthren-17-yl]ethyl]carbamate], the mrna remaining at 10 µM was less than 70%.

Compound `C[C@@H]1CN(CC(=O)[C@H]2CC[C@@]3(O)C4=CC(=O)[C@@H]5C[C@@H](O)[C@@H](O)C[C@]5(C)C4CC[C@]23C)C[C@H](C)O1` (stereo partly drawn) [Compound 83, (2S,3R,5R,10R,13R,14S,17S)-17-[2-[(2S,6R)-2,6-dimethylmorpholin-4-yl]acetyl]-2,3,14-trihydroxy-10,13-dimethyl-2,3,4,5,9,11,12,15,16,17-decahydro-1H-cyclopenta[a]phenanthren-6-one] registered a mrna remaining at 10 µM of 71 to 85%. Under `C=CC(=O)N(CC1CCCO1)C(C)[C@H]1CC[C@@]2(O)C3=CC(=O)[C@@H]4C[C@@H](O)[C@@H](O)C[C@]4(C)C3CC[C@]12C` (stereo partly drawn) [Compound 48, N-(tetrahydrofuran-2-ylmethyl)-N-[1-[(2S,3R,5R,10R,13R,14S,17S)-2,3,14-trihydroxy-10,13-dimethyl-6-oxo-2,3,4,5,9,11,12,15,16,17-decahydro-1H-cyclopenta[a]phenanthren-17-yl]ethyl]prop-2-enamide] stands 71 to 85%; under `CC(C)=CCO/N=C(/C)[C@H]1CC[C@@]2(O)C3=CC(=O)[C@@H]4C[C@@H](O)[C@@H](O)C[C@]4(C)C3CC[C@]12C` (stereo partly drawn) [Compound 30, (2S,3R,5R,10R,13R,14S,17S)-2,3,14-trihydroxy-10,13-dimethyl-17-(C-methyl-N-(3-methylbut-2-enoxy)carbonimidoyl)-2,3,4,5,9,11,12,15,16,17-decahydro-1H-cyclopenta[a]phenanthren-6-one], 71 to 85%. The compound `CO/N=C1\C=C2C(CC[C@]3(C)[C@@H](/C(CN4CCOCC4)=N\OC)CC[C@@]23O)[C@@]2(C)C[C@H](O)[C@H](O)C[C@@H]12` (stereo partly drawn) [Compound 101, (2S,3R,5R,6E,10R,13R,14S,17S)-6-methoxyimino-17-(N-methoxy-C-(morpholinomethyl)carbonimidoyl)-10,13-dimethyl-2,3,4,5,9,11,12,15,16,17-decahydro-1H-cyclopenta[a]phenanthrene-2,3,14-triol] showed a mrna remaining at 10 µM of less than 70%.

`COC(CN(C(=O)c1ccco1)C(C)[C@H]1CC[C@@]2(O)C3=CC(=O)[C@@H]4C[C@@H](O)[C@@H](O)C[C@]4(C)C3CC[C@]12C)OC` (stereo partly drawn) [Compound 60, N-(2,2-dimethoxyethyl)-N-[1-[(2S,3R,5R,10R,13R,14S,17S)-2,3,14-trihydroxy-10,13-dimethyl-6-oxo-2,3,4,5,9,11,12,15,16,17-decahydro-1H-cyclopenta[a]phenanthren-17-yl]ethyl]furan-2-carboxamide] showed a mrna remaining at 10 µM of 71 to 85%. To `CCON=C(C)[C@H]1CCC2C3=CC(=O)[C@@H]4C[C@@H](O)[C@@H](O)C[C@]4(C)C3CC[C@@]21C` (stereo partly drawn) [Compound 5, (2S,3R,5R,10R,13S,17S)-17-(N-ethoxy-C-methylcarbonimidoyl)-2,3-dihydroxy-10,13-dimethyl-1,2,3,4,5,9,11,12,14,15,16,17-dodecahydrocyclopenta[a]phenanthren-6-one] belongs less than 70%; to `C/C(=N/OCCN1CCCC1)[C@H]1CC[C@@]2(O)C3=CC(=O)[C@@H]4C[C@@H](O)[C@@H](O)C[C@]4(C)C3CC[C@]12C` (stereo partly drawn) [Compound 36, (2S,3R,5R,10R,13R,14S,17S)-2,3,14-trihydroxy-10,13-dimethyl-17-(C-methyl-N-(2-pyrrolidin-1-ylethoxy)carbonimidoyl)-2,3,4,5,9,11,12,15,16,17-decahydro-1H-cyclopenta[a]phenanthren-6-one], 71 to 85%. Under `COCC(=O)N(C1CC1)C(C)[C@H]1CC[C@@]2(O)C3=CC(=O)[C@@H]4C[C@@H](O)[C@@H](O)C[C@]4(C)C3CC[C@]12C` (stereo partly drawn) [Compound 54, N-cyclopropyl-2-methoxy-N-[1-[(2S,3R,5R,10R,13R,14S,17S)-2,3,14-trihydroxy-10,13-dimethyl-6-oxo-2,3,4,5,9,11,12,15,16,17-decahydro-1H-cyclopenta[a]phenanthren-17-yl]ethyl]acetacetamide] stands less than 70%; under `COCCON=C(C)[C@H]1CC[C@@]2(O)C3=C/C(=N\OC)[C@@H]4C[C@@H](O)[C@@H](O)C[C@]4(C)C3CC[C@]12C` (stereo partly drawn) [Compound 19, (2S,3R,5R,6E,10R,13R,14S,17S)-17-(N-(2-methoxyethoxy)-C-methylcarbonimidoyl)-6-methoxyimino-10,13-dimethyl-2,3,4,5,9,11,12,15,16,17-decahydro-1H-cyclopenta[a]phenanthrene-2,3,14-triol], 71 to 85%. To `C/C(=N/OCCOc1ccccc1)[C@H]1CC=C2C3=CC(=O)[C@@H]4C[C@@H](O)[C@@H](O)C[C@]4(C)C3CC[C@@]21C` (stereo partly drawn) [Compound 33, (2S,3R,5R,10R,13R,17S)-2,3-dihydroxy-10,13-dimethyl-17-(C-methyl-N-(2-phenoxyethoxy)carbonimidoyl)-1,2,3,4,5,9,11,12,16,17-decahydrocyclopenta[a]phenanthren-6-one] belongs less than 70%; to `CC([C@H]1CC[C@@]2(O)C3=CC(=O)[C@@H]4C[C@@H](O)[C@@H](O)C[C@]4(C)C3CC[C@]12C)N(CC1CCCO1)C(=O)C1CC1` (stereo partly drawn) [Compound 47, N-(tetrahydrofuran-2-ylmethyl)-N-[1-[(2S,3R,5R,10R,13R,14S,17S)-2,3,14-trihydroxy-10,13-dimethyl-6-oxo-2,3,4,5,9,11,12,15,16,17-decahydro-1H-cyclopenta[a]phenanthren-17-yl]ethyl]cyclopropanecarboxamide], less than 70%.

`CC([C@H]1CC[C@@]2(O)C3=CC(=O)[C@@H]4C[C@@H](O)[C@@H](O)C[C@]4(C)C3CC[C@]12C)N(Cc1cccnc1)C(=O)c1ccco1` (stereo partly drawn) [Compound 73, N-(3-pyridylmethyl)-N-[1-[(2S,3R,5R,10R,13R,14S,17S)-2,3,14-trihydroxy-10,13-dimethyl-6-oxo-2,3,4,5,9,11,12,15,16,17-decahydro-1H-cyclopenta(a)phenanthren-17-yl]ethyl]furan-2-carboxamide] showed a mrna remaining at 10 µM of 71 to 85%. Under `CC(=NOCC(=O)O)[C@H]1CCC2C3=CC(=O)[C@@H]4C[C@@H](O)[C@@H](O)C[C@]4(C)C3CC[C@@]21C` (stereo partly drawn) [Compound 4, 2-[1-[(2S,3R,5R,10R,13S,17S)-2,3-dihydroxy-10,13-dimethyl-6-oxo-1,2,3,4,5,9,11,12,14,15,16,17-dodecahydrocyclopenta[a]phenanthren-17-yl]ethylideneamino]oxyacetic acid] stands less than 70%.

The values are drawn from US10316056B2, “Chemical compounds and use thereof for improving muscular quality” (BIOPHYTIS, priority 2014, dated 2019).
